{"source": "patent US20240108611A1", "about": "“COMPOSITION FOR PREVENTING OR TREATING METABOLIC DISEASES, CONTAINING TORSEMIDE AND CROMOLYN” (ONCOCROSS CO., LTD., priority 2021, published 2024)", "key": {"[1]": {"test_system": "nonalcoholic steatohepatitis (NASH) animal model", "assay": "Body weight change in nonalcoholic steatohepatitis (NASH) animal model, high fat diet", "assay_type": "in vivo, ICR mice", "conditions": "high-fat diet mice; 10 mg/kg each drug i.p. three times a week for 6 weeks"}, "NASH animal model": {"test_system": "NASH animal model", "assay": "Triglycerides in liver tissue by Oil Red O staining in NASH animal model", "conditions": "HFD mice after 13 weeks of diet and drug administration"}}, "data": [{"smiles": "O=C(O)c1cc(=O)c2c(OCC(O)COc3cccc4oc(C(=O)O)cc(=O)c34)cccc2o1", "note": "[cromolyn]", "values": [{"measurement": "change in body weight compared to high-fat diet control group (HFD PBS)", "setting": "[1]", "result": "no significant change"}, {"measurement": "triglycerides in liver tissue (Oil Red O staining) versus HFD PBS group", "setting": "NASH animal model", "result": "relatively decreased"}]}]}
